Assay results taken from patent US12600725B2 (Memorial Sloan-Kettering Cancer Center, priority 2013, dated 2026).
Values joined by “and” are separate entries in the source; they are usually repeats but may differ in a detail not shown here. Equal entries are not always repeated. “Also recorded” adds a separate entry of the source. Where two headings read alike, the source gives them in different places.

Key:
[1] = tested on: Grp94; settings: Hsp90 vs Grp94
[2] = target: T1, Trap-1 (Homo sapiens, UniProt Q12931); settings: for decrease in binding efficacy for Trap-1: relative to Hsp90; for loss of affinity for Trap-1: Hsp90 vs Trap-1
T1 sequence (Q12931 60-704): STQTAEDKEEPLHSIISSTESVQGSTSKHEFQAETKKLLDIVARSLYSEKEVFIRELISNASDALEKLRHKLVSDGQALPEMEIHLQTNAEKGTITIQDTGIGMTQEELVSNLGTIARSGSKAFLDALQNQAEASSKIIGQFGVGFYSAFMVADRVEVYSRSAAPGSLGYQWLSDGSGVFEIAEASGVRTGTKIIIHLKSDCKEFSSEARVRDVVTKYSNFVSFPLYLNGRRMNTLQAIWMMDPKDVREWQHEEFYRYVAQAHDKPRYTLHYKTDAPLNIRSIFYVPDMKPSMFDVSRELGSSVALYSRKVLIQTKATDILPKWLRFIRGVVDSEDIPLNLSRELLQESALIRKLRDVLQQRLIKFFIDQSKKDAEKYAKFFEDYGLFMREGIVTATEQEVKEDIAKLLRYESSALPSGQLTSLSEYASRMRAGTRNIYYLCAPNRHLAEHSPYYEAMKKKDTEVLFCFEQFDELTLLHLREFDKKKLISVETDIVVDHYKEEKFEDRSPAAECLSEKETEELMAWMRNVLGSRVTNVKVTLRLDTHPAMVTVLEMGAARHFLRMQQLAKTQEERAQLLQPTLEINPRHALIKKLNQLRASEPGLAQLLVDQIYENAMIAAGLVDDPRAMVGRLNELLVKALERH

[3] = target: T2, Grp94 (Canis lupus familiaris, UniProt P41148); settings: read-out: Grp94 IC50; 43a as FP probe
T2 sequence (P41148 with tags, fused parts or gaps DELINS287-327GGGG): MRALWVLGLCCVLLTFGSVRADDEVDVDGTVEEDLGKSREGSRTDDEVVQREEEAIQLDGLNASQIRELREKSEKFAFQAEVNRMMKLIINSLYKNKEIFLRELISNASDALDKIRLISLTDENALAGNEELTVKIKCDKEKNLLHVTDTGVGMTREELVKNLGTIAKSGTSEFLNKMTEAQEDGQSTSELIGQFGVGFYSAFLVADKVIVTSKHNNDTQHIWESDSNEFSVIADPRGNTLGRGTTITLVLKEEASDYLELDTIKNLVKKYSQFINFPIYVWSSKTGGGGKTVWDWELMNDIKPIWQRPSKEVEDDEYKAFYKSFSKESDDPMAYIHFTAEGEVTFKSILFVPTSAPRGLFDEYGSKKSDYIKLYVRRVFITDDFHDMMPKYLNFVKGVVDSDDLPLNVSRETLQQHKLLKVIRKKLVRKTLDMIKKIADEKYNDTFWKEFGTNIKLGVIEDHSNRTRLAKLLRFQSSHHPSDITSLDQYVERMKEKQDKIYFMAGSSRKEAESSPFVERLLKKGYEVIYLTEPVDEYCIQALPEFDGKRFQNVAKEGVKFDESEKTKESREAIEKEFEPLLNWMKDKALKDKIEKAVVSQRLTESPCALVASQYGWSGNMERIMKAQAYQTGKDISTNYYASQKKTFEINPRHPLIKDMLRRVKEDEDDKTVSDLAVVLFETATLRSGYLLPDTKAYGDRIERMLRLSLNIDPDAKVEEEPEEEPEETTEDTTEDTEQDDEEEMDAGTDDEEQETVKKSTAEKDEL

[4] = target: T1, Trap-1; settings: read-out: TRAP-1
[5] = target: T3, Hsp90α (Homo sapiens, UniProt P07900); assay: biochemical; settings: FP competition, 6 nM Cy3B-GM, 10 nM protein, 4° C. for 24 h
[6] = target: Hsp90β (Homo sapiens, UniProt P08238)
Sequence of Hsp90β (P08238 whole entry): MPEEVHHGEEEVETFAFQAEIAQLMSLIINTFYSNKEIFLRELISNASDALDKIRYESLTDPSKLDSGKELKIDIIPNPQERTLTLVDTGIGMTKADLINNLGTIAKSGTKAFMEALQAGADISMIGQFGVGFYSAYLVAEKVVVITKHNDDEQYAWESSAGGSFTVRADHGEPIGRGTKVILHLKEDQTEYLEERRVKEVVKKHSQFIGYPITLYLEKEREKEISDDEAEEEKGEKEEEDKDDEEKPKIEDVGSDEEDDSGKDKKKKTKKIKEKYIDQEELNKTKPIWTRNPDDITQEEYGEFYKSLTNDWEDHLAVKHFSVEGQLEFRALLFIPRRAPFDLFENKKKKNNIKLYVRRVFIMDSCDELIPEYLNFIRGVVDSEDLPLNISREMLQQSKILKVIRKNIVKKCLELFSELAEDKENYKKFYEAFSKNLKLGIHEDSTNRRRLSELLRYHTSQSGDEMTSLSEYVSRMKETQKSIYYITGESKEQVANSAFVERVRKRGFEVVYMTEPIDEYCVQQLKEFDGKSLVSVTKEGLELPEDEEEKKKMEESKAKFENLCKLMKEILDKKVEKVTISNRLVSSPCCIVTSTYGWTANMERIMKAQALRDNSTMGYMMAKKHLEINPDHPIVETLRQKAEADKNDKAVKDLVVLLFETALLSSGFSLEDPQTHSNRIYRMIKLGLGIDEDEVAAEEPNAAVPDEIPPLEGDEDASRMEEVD

[7] = target: T2, Grp94; settings: read-out: Grp94; FP competition, 6 nM Cy3B-GM, 10 nM protein, 4° C. for 24 h
[8] = target: T3, Hsp90α; settings: read-out: Hsp90α; FP competition, 6 nM Cy3B-GM, 10 nM protein, 4° C. for 24 h
[9] = tested on: MDA-MB-468 cells; assay: Growth inhibition assay (Alamar blue); format: cell-based; settings: Homo sapiens
Protocol: We evaluated the antiproliferative effects of inhibitors using the dye Alamar blue. This reagent offers a rapid objective measure of cell viability in cell culture, and it uses the indicator dye resazurin to measure the metabolic capacity of cells, an indicator of cell viability. Briefly, MDA-MB-468 cells were plated on Costar 96-well plates at 1500 cells/well. Cells were allowed to incubate for 24 h at 37° C. before drug treatment. Drugs were added in triplicate at the indicated concentrations, and the plate was incubated for 72 h. Alamar Blue (440 μM) was added, and the plate read 6 h later using Softmax Pro 6 software (Fluorescence intensity mode, excitation 530 nm, emission 580 nm, with 560 nm dichroic mirror). Results were analyzed using GraphPad Prism 5. The percentage cell growth inhibition was calculated by comparing fluorescence readings obtained from treated versus control cells, accounting for initial cell population (time zero).

[10] = tested on: HER2 at the plasma membrane of SKBr3 cells; assay: Immunofluorescence of HER2 architecture at the plasma membrane; format: cell-based
Protocol: We next investigated the biological significance of the unique association of HER^2 with Grp94 at the plasma membrane of SKBr3 cells. Because the Grp94 inhibitors described here target the ATP-binding pocket of Grp94, they affect Grp94 chaperone activity. Therefore we hypothesized that Grp94 may act on HER^2 at the plasma membrane to stabilize the protein and to regulate its function.
Immunofluorescence. Cells were seeded and grown onto culture slides (BD Falcon) for 24 hrs. After washing with cold PBS, cells were fixed by treating at 4° C. for 20 min with 4% paraformaldehyde in PBS, permeabilized with 0.1% Triton X-100 in PBS containing 10% FBS for 10 min, and blocked with 2% BSA for 1 hr. After washing for four times with PBS, primary antibodies were added onto the chambers and cell were incubated overnight at 4° C., washed again with PBS followed by incubation with the secondary antibody for 1 hr at room temperature. Cell were washed and then mounted and observed under microscope (Leica Upright Confocal SP5). The primary antibodies used in the assay are against: HER^2 (Zymed, 28004), Grp94 (Stressgen, SPA-850), Hsp70 (Stressgen, SPA-810), LAMP1-FITC (Abcam, ab25406), EEA1 (Abcam, ab70521), 58K Golgi-FITC (Abcam, ab27043) and Calnexin (BD, 610523).

`COc1c(C)cnc(Cn2cnc3c(Cl)nc(N)nc32)c1C` [BIIB021] was tested, and the “loss of affinity for Grp94” value [1] was “approximately 10 fold” and the “decrease in binding efficacy for Trap-1” value [2] was 5 fold.
With `CN(C)c1cc2c(cc1Sc1nc3c(N)nccc3n1CCNCC(C)(C)C)OCO2` [CUDC-305/Debio092] the “loss of affinity for Grp94” value [1] was “approximately 10 fold” and the “loss of affinity for Trap-1” value [2] was ~2 log.
For `C=CCNC1=C2C[C@@H](C)C[C@H](OC)[C@H](O)[C@@H](C)/C=C(\C)[C@H](OC(N)=O)[C@@H](OC)/C=C\C=C(/C)C(=O)NC(=CC1=O)C2=O` [Compound 17-AAG], the IC50 [3] was 0.031 µM, the “loss of affinity for Trap-1” value [2] was ~2 log and the IC50 ([2]; read-out: Trap-1 IC50, 43a as FP probe) was 1.5 µM. The IC50 ([2]; read-out: binding affinity (FP competition), probe 115a) was 1.5 µM.
With `CCNC(=O)c1noc(-c2cc(C(C)C)c(O)cc2O)c1-c1ccc(CN2CCOCC2)cc1` [NVP-AUY922] the “decrease in binding efficacy for Trap-1” value [2] was 2 fold.
In the case of `C#CCCCn1c(Sc2cc(C)cc(C)c2)nc2c(N)ncnc21` [PU-H4], the IC50 [4] is reported as 158 ± 9.7 µM, the IC50 [5] is reported as > 300 µM and the IC50 [6] is reported as > 300 µM. For the same compound, the IC50 [7] was 11.5 ± 0.92 µM.
`C#CCCCn1c(Sc2cc(C)ccc2C)nc2c(N)ncnc21` [PU-H27] was tested, and the IC50 [4] was 204 ± 11 µM, the IC50 [5] was > 300 µM and the IC50 [6] was > 300 µM.
In the case of `C#CCCCn1c(Sc2cc(Cl)ccc2Cl)nc2c(N)ncnc21` [PU-H42], the IC50 [4] is reported as 5.1 ± 4.2 µM, the IC50 [6] is reported as > 100 µM and the IC50 [8] is reported as 60.4 ± 1.6 µM. The IC50 [7] was 0.53 ± 0.1 µM.
With `C#CCCCn1c(Sc2cc(Cl)c(Cl)cc2Cl)nc2c(N)ncnc21` [PU-H51] the IC50 [4] was 78.4 ± 8.9 µM, the IC50 [5] was > 200 µM and the IC50 [6] was > 200 µM. It also gave an IC50 [7] of 0.17 ± 0.11 µM.
For `CC1(C)CC(=O)c2c(C(F)(F)F)nn(-c3ccc(C(N)=O)c(N[C@H]4CC[C@H](O)CC4)c3)c2C1` [SNX-2112], the “loss of affinity for Grp94” value [1] was “approximately 10 fold”.
`C[C@H](NCCCn1c(Sc2cc(Cl)cc(Cl)c2)nc2c(N)ncnc21)C1CC1` [SO-III-127B, (S)-9-(3-((1-cyclopropylethyl)amino)propyl)-8-((3,5-dichlorophenyl)thio)-9H-purin-6-amine] was tested, and the IC50 [5] was 40.4 µM, the IC50 [9] was 0.83 µM and the IC50 [7] was 0.345 µM.
`C[C@@H](NCCCn1c(Sc2cc(Cl)cc(Cl)c2)nc2c(N)ncnc21)C1CC1` [SO-III-128B, (R)-9-(3-((1-cyclopropylethyl)amino)propyl)-8-((3,5-dichlorophenyl)thio)-9H-purin-6-amine] showed an IC50 [5] of 35.6 µM, an IC50 [9] of 0.84 µM and an IC50 [7] of 0.276 µM.
`CC(C)c1cc(-c2n[nH]c(=O)n2-c2ccc3c(ccn3C)c2)c(O)cc1O` [STA-9090] gave an IC50 [3] of 0.01 µM.
`CC(C)NCCCn1c(Sc2ccc(Cl)cc2Cl)nc2c(N)ncnc21` [WS-12, 8-((2,4-Dichlorophenyl)thio)-9-(3-(isopropylamino)propyl)-9H-purin-6-amine] was tested, and the IC50 [8] was 20.3 ± 1.2 µM and the IC50 [7] was 0.41 µM and 0.407 µM.
With `CC(C)NCCCn1c(Sc2cc(Cl)cc(Cl)c2)nc2c(N)ncnc21` [WS-13, 8-((3,5-Dichlorophenyl)thio)-9-(3-(isopropylamino)propyl)-9H-purin-6-amine] the IC50 ([6]; read-out: Hsp90β, FP competition, 6 nM Cy3B-GM, 10 nM protein, 4° C. for 24 h) was 41.8 ± 1.3 µM, the IC50 [8] was 27.3 ± 3.5 µM and the IC50 [7] was 0.22 ± 0.08 µM.
In the case of `CS(=O)(=O)CCNCc1ccc(-c2ccc3ncnc(Nc4ccc(OCc5cccc(F)c5)c(Cl)c4)c3c2)o1` [lapatinib], the “effect on HER2 architecture at the plasma membrane” value [10] is reported as “does not disrupt the HER^2 architecture at the plasma membrane; also recorded: No such effect was observed”.
